Consider one molecule from article PMC10886839, “Electrochemical DNA Cleavage Sensing for EcoRV Activity and Inhibition with an ERGO Electrode” (Biosensors, 2024).

SMILES strings stand for the structures.

The test concerns the target T1, EcoRV (Escherichia coli, UniProt P04390).
T1 construct: gene ecoRVR; restriction endonuclease, dosed in U/mL; homodimer (known biology)
T1 sequence (P04390 2-245): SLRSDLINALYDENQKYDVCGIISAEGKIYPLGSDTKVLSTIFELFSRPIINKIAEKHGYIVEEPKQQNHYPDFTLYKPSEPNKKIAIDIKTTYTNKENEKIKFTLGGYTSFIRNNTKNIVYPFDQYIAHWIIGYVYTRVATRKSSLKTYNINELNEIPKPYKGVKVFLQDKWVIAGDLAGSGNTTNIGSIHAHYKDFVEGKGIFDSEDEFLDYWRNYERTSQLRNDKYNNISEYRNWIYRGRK
In words: electrochemical DNA cleavage assay (DPV of methylene blue-labelled DNA on ERGO electrode). In kind it is biochemical.

`O=C(O)C1=CC(=C(c2ccc(O)c(C(=O)O)c2)c2ccc(O)c(C(=O)O)c2)C=CC1=O` [ATA, aurintricarboxylic acid] had an IC50 of 96 nM.

As a reminder, the IC50 is the concentration at which inhibition is half-maximal. High values mean lower potency, low ones higher potency.
